Experimental data taken from patent US5942519A, “Prevention of precipitated acute urinary retention” (Merck & Co., Inc., priority 1998, dated 1999).

What was measured:
[1] = system: precipitated acute urinary retention; assay: Four-year double-blind, placebo-controlled study in men with BPH: precipitated acute urinary retention; type: in vivo, human
Procedure: A total of 3040 men with moderate to severe symptoms of BPH and enlarged prostates were treated with either finasteride (17β-(N-tert-butylcarbamoyl)-3-oxo-4-aza-5α-androst-1-en-3-one,5 mg daily) or placebo in a four year double-blind, placebo-controlled study. BPH-related outcomes were assessed every 4 months. Patients on alpha blockers, antiandrogens, with a history of chronic prostatitis, recurrent urinary tract infections, or prior prostate or bladder surgery were excluded. A total of 3016 patients randomized to treatment had efficacy data and were included in the analysis of precipitated acute urinary retention; 1513 in the finasteride group and 1503 in the placebo group.
The endpoint committee, blinded to treatment group, reviewed all study-related documents related to episodes of acute urinary retention to classify the episodes as spontaneous or precipitated by other factors. All acute urinary retentions were classified by the endpoint committee as being "clearly" BPH related ("spontaneous") if there was no clear precipitating event, such as surgery within 72 hours, a precipitating medical event (e.g. stroke), or ingestion of a medication thought to precipitate retention (e.g., pseudoephedrine hydrochloride), etc. The other episodes of acute urinary retention were classified as not "clearly" BPH related ("precipitated") since there was likely to be more than one factor (including BPH) involved that precipitated the event.
Acute urinary retention was analyzed using the log-rank test for time-to-first-event and corroborated with Fisher's exact test on the cumulative incidence.

[2] = system: BPH / spontaneous acute urinary retention; details: patients with BPH; cited from earlier work
[3] = system: human type 2 enzyme (5α-reductase); details: cited from earlier work

CC(C)(C)NC(=O)[C@H]1CC[C@H]2[C@@H]3CC[C@H]4NC(=O)C=C[C@]4(C)[C@H]3CC[C@]12C [finasteride, 17β-(N-tert-butylcarbamoyl)-3-oxo-4-aza-5α-androst-1-en-3-one]
patients with an episode of precipitated acute urinary retention (percent) ([1]; 5 mg daily, 4-year study period, n=1513 finasteride, placebo 3.3%): 1.5%
patients with an episode of precipitated acute urinary retention (number) ([1]; 5 mg daily, 4-year study period, n=1513 finasteride, placebo 49 of 1503): 23 patients
reduction of the risk of having an episode of precipitated acute urinary retention ([1]; 5 mg daily, compared with placebo, over the 4-year study period): 52%
relative risk (hazard ratio) versus placebo, precipitated acute urinary retention ([1]; finasteride 5 mg daily versus placebo, 4-year study period): 0.48
reducing spontaneous acute urinary retention (in words) [2]: significantly reducing spontaneous acute urinary retention
treating BPH (in words) [2]: effective in treating BPH
inhibition of the human type 2 enzyme (in words) [3]: potent inhibitor of the human type 2 enzyme
